# Test results reported in patent US20090123389A1, “Methods for modulating Th17 cell development in the treatment and prevention of cellulite” (priority 2007, published 2009).
# “And” between values parts separate entries of the source, which are not always exact repeats. Equal values may be shown once. Read-outs that look alike come from different tables or passages of the source.
# Key:
# CD4+ CD25− T cells = assay: Th17 differentiation / IL-17 expression of activated CD4+ CD25− T cells (TGFβ plus IL-6); format: cell-based, mouse; conditions: for IC50: Mus musculus, T-cell
# Method: Low doses of halofuginone (HF) were tested to determine the ability of HF to enhance Treg differentiation, while suppressing Th17 differentiation. Naïve CD4+ T cells (CD4+ CD25−) were isolated from the spleen and peripheral lymph nodes of C57B/6 mice. T cells were then activated using anti-CD3 (0.3 μg/ml) and anti-CD28 (0.5 μg/ml) antibodies either in media alone (row 1, 4), TGFβ alone (3 ng/ml—row 2, 5) or TGFβ (3 ng/ml) plus IL-6 (30 ng/ml) (row 3, 6). […] T cells were cultured for 3 days and CD25 and Foxp3 expression (Treg marker genes) was determine by FACS staining and flow cytometric analyses. Simultaneously, T cells were harvested and re-stimulated for 4 hours using phorbol myristic acetate (PMA; 10 nM), Ionomycin (1 μM) and cytokine secretion was prevented using brefeldin A (20 μg/ml). Following stimulation, the production of IL-17 and IFNγ were determined by intracellular staining and analyzed via flow cytometry.
# The dose-response of HF on CD4+ T cell proliferation, activation (i.e. CD25 upregulation) and differentiation to Th1, Th2 and Th17 lineages were evaluated. Purified murine naïve CD4+ CD25− T cells were activated using anti-CD3 (0.3 μg/ml) and anti-CD28 (0.5 μg/ml) antibodies and varying amounts of HF was added to each T cell culture condition (1.25 nM-40 nM). CD4+ T cell proliferation was monitored by CFSE dilution on day 3-post activation and CD25 expression was evaluated by FACS staining 2 days after activation. For T cell differentiation experiments, naïve T cells were activated as above in the presence of Th1 (IL-12 (20 ng/ml) plus anti-IL-4 (1.5 μg/ml)), Th2 (IL-4 (50 ng/ml) plus anti-IFNγ (0.5 mg/ml)) or Th17 (TGFβ (3 ng/ml) plus IL-6 (30 ng/ml)) polarizing conditions plus titrating amounts of HF (1.25 nM-40 nM) or MAZ1310 (40 nM). […] All cytokine expression was determined by intracellular staining following PMA+Ionomycin+Brefeldin A re-stimulation and all data was normalized to control (MAZ1310)-treated cells. […] Biol., vol. 80:1-8 (2006).
# Cytokines, antibodies and T cell culture: Purified CD4^+ CD25^− T cells were activated in vitro as previously described (I. M. Djuretic et al., Nat Immunol 8, 145 (2007)) using 0.3 μg/ml hamster anti-mouse CD3 (clone 145-2C11) (ATCC—Manassas, Va.) and 0.5 μg/ml hamster anti-mouse CD28 (BD Pharmingen, San Jose, Calif.). Activated cell cultures were differentiated using the following combinations of cytokines and antibodies: iTreg=recombinant human TGFβ1 (3 ng/ml; R&D systems, Minneapolis, Minn.), Th17=TGFβ1 (3 ng/ml) plus recombinant mouse IL-6 (30 ng/ml, R&D systems). Th1 and Th2 differentiation was performed as previously described. (I. M. Djuretic et al., Nat Immunol 8, 145 (2007)). Human IL-2 supernatant (National Cancer Institute) was used in culture at 0.01 U/ml and was added at 48 hours-post activation when T cells were split into tissue culture wells lacking CD3 and CD28 antibodies, with the exception of Th17 cultures that were maintained in the absence of IL-2. All reagents were added at the time of T cell activation and again at 48-hours post activation unless indicated otherwise. For some experiments, purified CD4^+ CD25^− T cells, CD8^+ T cells or B cells were labeled with 1 μM CFSE (Invitrogen) prior to activation in accordance with manufacturers instructions.
# MAZ1310 was generated by chemical derivatization of halofuginone and was used at equal concentrations as a negative control.
# [1] = tested on: human memory T cells (CD4+ CD45RO+); assay: IL-17 and IFNγ expression by human memory T cells co-cultured with monocytes; format: cell-based; conditions: 100 nM HF, 6 days
# Method: FIG. 10F is an illustration depicting purified primary human memory T cells (CD4^+ CD45RO^+) activated by anti-CD3/anti-CD28 coated beads in co-culture with CD14^+ monocytes and treated with DMSO, 100 nM HF or 100 nM MAZ1310. T cells were expanded for 6 days and intracellular cytokine expression was determined following restimulation with PMA plus ionomycin in the presence of brefeldin A.
# Human T cell isolation and activation: Resting CD4^+ T cells were isolated from PBMC of healthy human donors using Dynal CD4 Positive Isolation Kit (Invitrogen, Carlsbad, Calif.) as previously described (M. Sundrud et al., Blood 106, 3440, 2005). CD4^+ cells were further purified to obtain memory T cells by staining with PE-conjugated anti-human CD45RO-PE antibodies (BD Biosciences), and sorting on a FACSAria cytometer (BD Biosciences). Following purification, cells were greater than 99% CD4^+ CD45RO^+. […] T cells were expanded in the presence HF or MAZ1310 as indicated for 6 days and intracellular cytokine expression was determined by intracellular staining.
# Detection of cytokine production: Cytokines secreted into media supernatant were measured using the mouse Th1/Th2 cytometric bead array (CBA, BD Pharmingen) in accordance with manufacturers instructions. […]
# [2] = cited from earlier work
smiles,measurement,setting,value
"O=C(CC1NCCCC1O)Cn1cnc2cc(Br)c(Cl)cc2c1=O (racemic) [HF, 7-bromo-6-chloro-3-[3-(3-hydroxy-2-piperidinyl)-2-oxopropyl]-4(3H)-quinazolinone]",IL-17 expression in cultures where IFNγ and IL-4 were blocked by neutralizing antibodies,CD4+ CD25− T cells,reduced IL-17 expression
same,window of HF addition at start of culture giving most pronounced inhibition of IL-17 expression,CD4+ CD25− T cells; 10 nM HF added at different times after activation,12 h
same,IL-17 expression in T cells lacking Foxp3,"CD4+ CD25− T cells; 10 nM HF, TGFβ plus IL-6",strongly repressed
same,Th17 differentiation of T cells expressing STAT3C,"CD4+ CD25− T cells; 10 nM HF, TGFβ plus IL-6",remained capable of differentiating into Th17 cells
same,Il17 and Il17f mRNA expression,"CD4+ CD25− T cells; 10 nM HF, Th17 conditions, 4 days",impaired expression
same,IC50,"CD4+ CD25− T cells; 96 h, percentage of IL-17+ IFNγ− cells after restimulation on day 4-5, read-out: IC50 of repression of Th17 differentiation",3.6 nM
same,IC50,"CD4+ CD25− T cells; in vitro, read-out: 50% inhibition of Th17 cell development",2 to 3 nM
same,Th17 differentiation of cells expressing YFP or no transgene,"CD4+ CD25− T cells; TAT-Cre treated T cells, TGFβ plus IL-6",strongly impaired
same,HF concentration that inhibited expression of IL-17,CD4+ CD25− T cells; TGFβ/IL-6 treated T-cells,2.5 to 10 nM and 2.2 to 10 nM
same,IL-17 production,CD4+ CD25− T cells; low concentrations of HF (1-10 nM),strongly reduced
same,fold lower doses for effects on Th17 differentiation than for general inhibition of T-cell proliferation and differentiation,CD4+ CD25− T cells; versus proliferation and Th1 or Th2 differentiation,5- to 10 fold and ~10 fold
same,IFNγ expression by human T cells,[1],essentially unaffected
same,percentage of human T cells expressing IL-17 and amount of IL-17 produced,[1],greatly reduced
same,peak plasma concentration,[2]; oral 3.5 mg/day,3 ng/ml and ~8 nM
same,dose at which dose limiting toxicity (nausea and vomiting) occurred,[2]; oral,3.5 mg/day
same,recommended tolerated dose for chronic treatment,[2]; oral,0.5 mg/day
